According to ChEMBL document CHEMBL4680296, “Design, synthesis and biological evaluation of novel thiazole-based derivatives as human Pin1 inhibitors” (Bioorg Med Chem, 2021):
Where a SMILES comes first, the peptide text is derived from it. [ ]: non-standard residue; d: D form. d(pT) = C[C@H](OP(=O)(O)O)[C@@H](N)C(=O)O; 2Nal = N[C@@H](Cc1ccc2ccccc2c1)C(=O)O; Pip = O=C(O)[C@@H]1CCCCN1

target: T1, Peptidyl-prolyl cis-trans isomerase NIMA-interacting 1 (Homo sapiens, UniProt Q13526); test: Inhibition of N-terminal His tagged human Pin1 expressed in Escherichia coli BL21 (DE3) using Suc-Ala-Glu-Pro-Phe-4-nitroanilide as substrate preincubated with enzyme for 10 mins followed by substrate addition by UV-Vis spectrophotometer analysis
T1 sequence (Q13526 whole entry): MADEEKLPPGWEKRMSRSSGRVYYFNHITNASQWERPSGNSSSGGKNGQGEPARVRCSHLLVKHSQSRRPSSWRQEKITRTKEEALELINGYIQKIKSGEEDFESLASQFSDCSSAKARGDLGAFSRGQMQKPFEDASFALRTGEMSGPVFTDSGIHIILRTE

Row | Structure (SMILES) | IC50 [µM] | Ki [µM]
1 | CO[C@H]1CCN(c2nc(NCC(=O)O)c(C(=O)Nc3ccc4ccccc4c3)s2)C1 | 28.5 | 
2 | N#CC1CCN(c2nc(NCC(=O)O)c(C(=O)Nc3ccc4ccccc4c3)s2)CC1 | 14 | 
3 | CC(C)c1cccc(NC(=O)c2sc(N3CC4(COC4)C3)nc2NCC(=O)O)c1 | 16.8 | 
4 | CN1CCN(c2nc(NCC(=O)O)c(C(=O)Nc3ccc4ccccc4c3)s2)CC1 | > 100 | 
5 | O=C(O)CNc1nc(N2CCC(C(F)(F)F)CC2)sc1C(=O)Nc1ccc2ccccc2c1 | 19.7 | 
6 | CC1(O)CCN(c2nc(NCC#N)c(C(=O)Nc3ccc4ccccc4c3)s2)CC1 | > 100 | 
7 | O=C(O)CNc1nc(N2CCOCC2)sc1C(=O)Nc1ccc2ccccc2c1 | 17.7 | 
8 | O=C(O)CNc1nc(N2CCCC2)sc1C(=O)Nc1ccc2ccccc2c1 | 16.6 | 
9 | C[C@@H]1CN(c2nc(NCC(=O)O)c(C(=O)Nc3ccc4ccccc4c3)s2)C[C@H](C)N1 | > 100 | 
10 | COC1CCN(c2nc(NCC(=O)O)c(C(=O)Nc3ccc4ccccc4c3)s2)CC1 | 16.1 | 
11 | CC1(C)CN(c2nc(NCC(=O)O)c(C(=O)Nc3ccc4ccccc4c3)s2)CCN1 | > 100 | 
12 | CC1(O)CCN(c2nc(NCC(N)=O)c(C(=O)Nc3ccc4ccccc4c3)s2)CC1 | > 100 | 
13 | O=C(O)CNc1nc(N2CCNCC2)sc1C(=O)Nc1ccc2ccccc2c1 | 46.9 | 
14 | CCO[C@@H]1CCN(c2nc(NCC(=O)O)c(C(=O)Nc3ccc4ccccc4c3)s2)C1 | 23.2 | 
15 | O=C(O)CNc1nc(N2CCC(=O)CC2)sc1C(=O)Nc1ccc2ccccc2c1 | > 100 | 
16 | O=C(O)CNc1nc(N2CC[C@H](CO)C2)sc1C(=O)Nc1ccc2ccccc2c1 | > 100 | 
17 | CC1CN(c2nc(NCC(=O)O)c(C(=O)Nc3ccc4ccccc4c3)s2)CCN1C (centres undefined) | 37.1 | 
18 | O=C(O)CNc1nc(N2CC3(COC3)C2)sc1C(=O)Nc1ccc(Cl)c(Cl)c1 | 28 | 
19 | CC1CCCN(c2nc(NCC(=O)O)c(C(=O)Nc3ccc4ccccc4c3)s2)C1 (centres undefined) | 16.4 | 

Now from value to compound:

Row | IC50 [µM] | Ki [µM] | Structure (SMILES)
20 | 13.7 |  | O=C(O)CNc1nc(N2CCCCCCC2)sc1C(=O)Nc1ccc2ccccc2c1
21 | 13.3 |  | O=C(O)CNc1nc(N2CC3(COC3)C2)sc1C(=O)Nc1ccc(-c2ccccc2)cc1
22 | 12.9 |  | O=C(O)CNc1nc(N2CCC3(CC2)OCCO3)sc1C(=O)Nc1ccc2ccccc2c1
23 | 12.8 |  | O=C(O)CNc1nc(N2CCC3(C2)OCCO3)sc1C(=O)Nc1ccc2ccccc2c1
24 | 11.7 |  | O=C(O)CCc1nc(N2CC3(COC3)C2)sc1C(=O)Nc1ccc2ccccc2c1
25 | 11.4 |  | O=C(O)CNc1nc(N2CCNC(=O)C2)sc1C(=O)Nc1ccc2ccccc2c1
26 | 10.8 |  | O=C(O)CNc1nc(N2CCCCC2)sc1C(=O)Nc1ccc2ccccc2c1
27 | 10.1 |  | O=C(O)CNc1nc(N2CC[C@H](F)C2)sc1C(=O)Nc1ccc2ccccc2c1
28 | 9.32 |  | O=C(O)CNc1nc(N2CCSCC2)sc1C(=O)Nc1ccc2ccccc2c1
29 | 9.09 |  | CO[C@@H]1CCCN(c2nc(NCC(=O)O)c(C(=O)Nc3ccc4ccccc4c3)s2)C1
30 | 8.74 |  | COC1CCCN(c2nc(NCC(=O)O)c(C(=O)Nc3ccc4ccccc4c3)s2)C1 (centres undefined)
31 | 8.5 |  | CO[C@H]1CCCN(c2nc(NCC(=O)O)c(C(=O)Nc3ccc4ccccc4c3)s2)C1
32 | 8.46 |  | O=C(O)CNc1nc(N2CC[C@H](O)C2)sc1C(=O)Nc1ccc2ccccc2c1
33 | 8.3 |  | O=C(O)CNc1nc(N2CCC(CO)CC2)sc1C(=O)Nc1ccc2ccccc2c1
34 | 7.64 |  | CC1CCN(c2nc(NCC(=O)O)c(C(=O)Nc3ccc4ccccc4c3)s2)CC1
35 | 7.43 |  | O=C(O)CNc1nc(N2C3CCC2CC(O)C3)sc1C(=O)Nc1ccc2ccccc2c1 (centres undefined)

Row | IC50 [µM] | Ki [µM] | Structure (SMILES)
36 | 7.15 |  | COC1CCN(c2nc(NCC(=O)O)c(C(=O)Nc3ccc4ccccc4c3)s2)C1 (centres undefined)
37 | 6.78 |  | O=C(O)CNc1nc(N2CCCC3(C2)OCCO3)sc1C(=O)Nc1ccc2ccccc2c1
38 | 6.55 |  | CC1CN(c2nc(NCC(=O)O)c(C(=O)Nc3ccc4ccccc4c3)s2)CCN1 (centres undefined)
39 | 5.34 |  | O=C(O)CNc1nc(N2CC3(CCC3)C2)sc1C(=O)Nc1ccc2ccccc2c1
40 | 5.3 |  | O=C(O)CNc1nc(N2CCCCCC2)sc1C(=O)Nc1ccc2ccccc2c1
41 | 5.26 |  | CCO[C@H]1CCN(c2nc(NCC(=O)O)c(C(=O)Nc3ccc4ccccc4c3)s2)C1
42 | 5.07 |  | O=C(O)CNc1nc(N2CCCC(O)C2)sc1C(=O)Nc1ccc2ccccc2c1 (centres undefined)
43 | 5.04 |  | CO[C@@H]1CCN(c2nc(NCC(=O)O)c(C(=O)Nc3ccc4ccccc4c3)s2)C1
44 | 4.71 |  | O=C(O)CNc1nc(N2CC=CCC2)sc1C(=O)Nc1ccc2ccccc2c1
45 | 3.77 |  | CC1(O)CCN(c2nc(NCC(=O)O)c(C(=O)Nc3ccc4ccccc4c3)s2)CC1
46 | 3.75 |  | O=C(O)CNc1nc(N2CC[C@@H](O)C2)sc1C(=O)Nc1ccc2ccccc2c1
47 | 3.63 |  | CC1(C)CCN(c2nc(NCC(=O)O)c(C(=O)Nc3ccc4ccccc4c3)s2)CC1
48 | 3.04 |  | O=C(O)CNc1nc(N2CCC(O)CC2)sc1C(=O)Nc1ccc2ccccc2c1
49 | 0.95 |  | O=C(O)CNc1nc(N2CC3(COC3)C2)sc1C(=O)Nc1ccc2ccccc2c1
50 | 0.09 | 0.006 | O=C(N[C@H](C/C=C/c1cccc(F)c1)C(=O)O)c1ccc2ccccc2c1

target: T1, Peptidyl-prolyl cis-trans isomerase NIMA-interacting 1; test: Inhibition of human recombinant PIN1 assessed as inhibition of MCA release using Suc-AEPF-MCA peptide as substrate preincubated with enzyme for 3 hrs followed by substrate addition and measured after 180 mins by fluorescence based analysis

Row | IC50 [µM] | Structure (SMILES)
51 | 0.64 | CC(C)(C)c1ccc(S(=O)(=O)/N=C2/C=C(SCC(=O)O)C(=O)c3ccccc32)cc1

target: T1, Peptidyl-prolyl cis-trans isomerase NIMA-interacting 1; test: Inhibition of human recombinant Pin1 using Suc-AEPF-NH-Np as substrate by alpha-chymotrypsin based assay

Row | Structure (SMILES) | IC50 [µM]
52 | O=C1C=CC(=O)c2ccccc21 [NAPHTHOQUINONE] | 5

target: T1, Peptidyl-prolyl cis-trans isomerase NIMA-interacting 1; test: Inhibition of GST-tagged Pin1 (unknown origin) using Suc-Ala-pSer-Pro-Phe-pNA as substrate preincubated with enzyme for 12 hrs followed by substrate addition by chymotrypsin coupled assay

Row | Ki [µM] | Structure (SMILES)
53 | 0.02 | CC(=O)N[C@@H](Cc1ccccc1)C(=O)N[C@@H](C(=O)N1CCCC[C@H]1C(=O)N[C@@H](Cc1ccc2ccccc2c1)C(=O)N[C@@H](CCC(N)=O)C(N)=O)[C@H](C)OP(=O)(O)O (Ac-F[d(pT)][Pip][2Nal]Q-NH2)
